Source: patent US20220323406A1, “METHODS AND COMPOSITIONS FOR DIFFERENTIATING STEM CELLS” (Massachusetts Institute of Technology, priority 2019, published 2022)
Structures can show the parent of a compound that is named as a salt.

How the values were obtained:
[1] = tested on: ENR+CD organoids (ISC to Paneth cell differentiation); assay: Primary screen: basal (non-stimulated) lysozyme secretion LYZ.NS, 2.5-D 384-well ENR+CD organoid differentiation; assay type: cell-based, mouse; conditions: primary screen; for Z.LYZ.NS: standard z score
Description: (§1) High-throughput screening.

[2] = tested on: ENR+CD organoids (ISC to Paneth cell differentiation); assay: Primary screen: CCh-stimulated lysozyme secretion LYZ.S, 2.5-D 384-well ENR+CD organoid differentiation; assay type: cell-based, mouse; conditions: primary screen
Description: as §1

ENR+CD organoids = assay: Primary screen: ATP (CellTiter-Glo 3D, CTG) cell number/viability, 2.5-D 384-well ENR+CD organoids; conditions: primary screen; for Z.CTG: standard z score;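 on all read-outs here: compounds given at plating and again on day 3 over a 6-day differentiation from ENR+CV stem-cell-enriched precursors, ATP measured on day 6, plate median as control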
[3] = dose 0.08 uM, FC vs plate median
[4] = dose 0.40 uM, FC vs plate median
[5] = dose 2.00 uM, FC vs plate median
[6] = dose 10.00 uM, FC vs plate median
[7] = dose 0.08 uM, FC relative to plate median
[8] = dose 0.40 uM, FC relative to plate median
[9] = dose 2.00 uM, FC relative to plate median
[10] = dose 10.00 uM, FC relative to plate median

For CC(=O)c1c(C)c2cnc(Nc3ccc(N4CCNCC4)cn3)nc2n(C2CCCC2)c1=O.Cl [Palbociclib (PD-0332991) HCl], which Z.LYZ.NS ([1]; dose 0.08 uM) is on record?
Its Z.LYZ.NS is −0.055.

And the Z.LYZ.NS ([1]; dose 0.40 uM)?
Its Z.LYZ.NS is −0.248.

What about the Z.LYZ.NS ([1]; dose 2.00 uM) of the same compound?
Its Z.LYZ.NS is −0.440.

What about the Z.LYZ.NS ([1]; dose 10.00 uM) of the same compound?
Its Z.LYZ.NS is −1.150.

What about the Dose.FC.LYZ.NS [1, 3] of the same compound?
Its Dose.FC.LYZ.NS is −0.006 log2 fold change.

What about the Dose.FC.LYZ.NS [1, 4] of the same compound?
Its Dose.FC.LYZ.NS is −0.029 log2 fold change.

What about the Dose.FC.LYZ.NS [1, 5] of the same compound?
The Dose.FC.LYZ.NS was −0.051 log2 fold change.

What about the Dose.FC.LYZ.NS [1, 6] of the same compound?
The Dose.FC.LYZ.NS was −0.132 log2 fold change.

What about the Dose.FC.LYZ.S [2, 3] of the same compound?
The Dose.FC.LYZ.S was 0.004 log2 fold change.

What about the Dose.FC.LYZ.S [2, 4] of the same compound?
Its Dose.FC.LYZ.S is −0.042 log2 fold change.

And the Dose.FC.LYZ.S [2, 5]?
Its Dose.FC.LYZ.S is −0.122 log2 fold change.

What about the Dose.FC.LYZ.S [2, 6] of the same compound?
The Dose.FC.LYZ.S was −0.203 log2 fold change.

What about the Z.CTG (ENR+CD organoids; dose 0.08 uM) of the same compound?
Its Z.CTG is 0.404.

What about the Z.CTG (ENR+CD organoids; dose 0.40 uM) of the same compound?
Its Z.CTG is −0.836.

And the Z.CTG (ENR+CD organoids; dose 2.00 uM)?
The Z.CTG was −0.199.

What about the Z.CTG (ENR+CD organoids; dose 10.00 uM) of the same compound?
The Z.CTG was −1.617.

What about the Dose.FC.CTG (ENR+CD organoids; [3]) of the same compound?
Its Dose.FC.CTG is 0.169 log2 fold change.

What about the Dose.FC.CTG (ENR+CD organoids; [4]) of the same compound?
The Dose.FC.CTG was −0.350 log2 fold change.

And the Dose.FC.CTG (ENR+CD organoids; [5])?
Its Dose.FC.CTG is −0.083 log2 fold change.

And the Dose.FC.CTG (ENR+CD organoids; [6])?
The Dose.FC.CTG was −0.677 log2 fold change.

Which “Dose.FC.LYZ.NS (log2 fold change)” value ([1]; dose 0.08 uM) does the source give for CN1C2CCCC1CC(NC(=O)c1nn(C)c3ccccc13)C2 (centres unmarked) [Granisetron HCl] here?
The value was 0.061.

And the “Z.LYZ.NS (standard z score)” value ([1]; dose 0.08 uM)?
Its value is 0.531.

What about the “Dose.FC.LYZ.NS (log2 fold change)” value ([1]; dose 0.40 uM) of the same compound?
Its value is −0.002.

What about the “Z.LYZ.NS (standard z score)” value ([1]; dose 0.40 uM) of the same compound?
Its value is −0.021.

What about the “Dose.FC.LYZ.NS (log2 fold change)” value ([1]; dose 2.00 uM) of the same compound?
Its value is 0.018.

What about the “Z.LYZ.NS (standard z score)” value ([1]; dose 2.00 uM) of the same compound?
The value was 0.155.

And the “Dose.FC.LYZ.NS (log2 fold change)” value ([1]; dose 10.00 uM)?
Its value is −0.043.

And the “Z.LYZ.NS (standard z score)” value ([1]; dose 10.00 uM)?
Its value is −0.378.

What about the “Dose.FC.LYZ.S (log2 fold change)” value ([2]; dose 0.08 uM) of the same compound?
The value was 0.015.

And the “Dose.FC.LYZ.S (log2 fold change)” value ([2]; dose 0.40 uM)?
The value was 0.131.

And the “Dose.FC.LYZ.S (log2 fold change)” value ([2]; dose 2.00 uM)?
Its value is −0.007.

And the “Dose.FC.LYZ.S (log2 fold change)” value ([2]; dose 10.00 uM)?
Its value is −0.103.

And the “Dose.FC.CTG (log2 fold change)” value (ENR+CD organoids; dose 0.08 uM)?
The value was −0.214.

What about the “Dose.FC.CTG (log2 fold change)” value (ENR+CD organoids; dose 0.40 uM) of the same compound?
Its value is −0.086.

What about the “Dose.FC.CTG (log2 fold change)” value (ENR+CD organoids; dose 2.00 uM) of the same compound?
Its value is −0.178.

And the “Dose.FC.CTG (log2 fold change)” value (ENR+CD organoids; dose 10.00 uM)?
Its value is −0.297.

What does the source list for COc1cc(-n2c(=S)[nH]c3ccccc3c2=O)c(Cl)cc1Cl [Mdivi-1]?
Dose.FC.LYZ.NS (log2 fold change) ([1]; dose 0.08 uM): 0.177; Z.LYZ.NS (standard z score) ([1]; dose 0.08 uM): 1.537; Dose.FC.LYZ.NS (log2 fold change) ([1]; dose 0.40 uM): 0.156; Z.LYZ.NS (standard z score) ([1]; dose 0.40 uM): 1.358; Dose.FC.LYZ.NS (log2 fold change) ([1]; dose 2.00 uM): −0.022; Z.LYZ.NS (standard z score) ([1]; dose 2.00 uM): −0.194; Dose.FC.LYZ.NS (log2 fold change) ([1]; dose 10.00 uM): −0.268; Z.LYZ.NS (standard z score) ([1]; dose 10.00 uM): −2.333; Dose.FC.LYZ.S (log2 fold change) ([2]; dose 0.08 uM): 0.079; Dose.FC.LYZ.S (log2 fold change) ([2]; dose 0.40 uM): 0.030; Dose.FC.LYZ.S (log2 fold change) ([2]; dose 2.00 uM): −0.048; Dose.FC.LYZ.S (log2 fold change) ([2]; dose 10.00 uM): −0.411; Dose.FC.CTG (log2 fold change) (ENR+CD organoids; dose 0.08 uM): 0.008; Z.CTG (standard z score) (ENR+CD organoids; dose 0.08 uM): 0.019; Dose.FC.CTG (log2 fold change) (ENR+CD organoids; dose 0.40 uM): −0.031; Z.CTG (standard z score) (ENR+CD organoids; dose 0.40 uM): −0.074; Dose.FC.CTG (log2 fold change) (ENR+CD organoids; dose 2.00 uM): −0.112; Z.CTG (standard z score) (ENR+CD organoids; dose 2.00 uM): −0.267; Dose.FC.CTG (log2 fold change) (ENR+CD organoids; dose 10.00 uM): −0.527; Z.CTG (standard z score) (ENR+CD organoids; dose 10.00 uM): −1.259

CCO.N#CC(=C(/N)Sc1ccccc1N)/C(C#N)=C(\N)Sc1ccccc1N [U0126-EtOH] was tested. Which Dose.FC.LYZ.NS ([1]; dose 0.08 uM) did it give?
Its Dose.FC.LYZ.NS is 0.099 log2 fold change.

What about the “Z.LYZ.NS (standard z score)” value ([1]; dose 0.08 uM) of the same compound?
Its value is 0.859.

And the Dose.FC.LYZ.NS ([1]; dose 0.40 uM)?
The Dose.FC.LYZ.NS was 0.019 log2 fold change.

What about the “Z.LYZ.NS (standard z score)” value ([1]; dose 0.40 uM) of the same compound?
The value was 0.163.

What about the Dose.FC.LYZ.NS ([1]; dose 2.00 uM) of the same compound?
Its Dose.FC.LYZ.NS is −0.045 log2 fold change.

And the “Z.LYZ.NS (standard z score)” value ([1]; dose 2.00 uM)?
Its value is −0.389.

And the Dose.FC.LYZ.NS ([1]; dose 10.00 uM)?
The Dose.FC.LYZ.NS was −0.117 log2 fold change.

And the “Z.LYZ.NS (standard z score)” value ([1]; dose 10.00 uM)?
Its value is −1.021.

What about the Dose.FC.LYZ.S ([2]; dose 0.08 uM) of the same compound?
The Dose.FC.LYZ.S was 0.114 log2 fold change.

And the Dose.FC.LYZ.S ([2]; dose 0.40 uM)?
Its Dose.FC.LYZ.S is 0.075 log2 fold change.

What about the Dose.FC.LYZ.S ([2]; dose 2.00 uM) of the same compound?
The Dose.FC.LYZ.S was −0.071 log2 fold change.

What about the Dose.FC.LYZ.S ([2]; dose 10.00 uM) of the same compound?
Its Dose.FC.LYZ.S is −0.165 log2 fold change.

And the Dose.FC.CTG (ENR+CD organoids; dose 0.08 uM)?
The Dose.FC.CTG was −0.350 log2 fold change.

And the “Z.CTG (standard z score)” value (ENR+CD organoids; dose 0.08 uM)?
Its value is −0.835.

What about the Dose.FC.CTG (ENR+CD organoids; dose 0.40 uM) of the same compound?
The Dose.FC.CTG was −0.514 log2 fold change.

And the “Z.CTG (standard z score)” value (ENR+CD organoids; dose 0.40 uM)?
The value was −1.227.

What about the Dose.FC.CTG (ENR+CD organoids; dose 2.00 uM) of the same compound?
Its Dose.FC.CTG is −0.476 log2 fold change.

And the “Z.CTG (standard z score)” value (ENR+CD organoids; dose 2.00 uM)?
Its value is −1.138.

What about the Dose.FC.CTG (ENR+CD organoids; dose 10.00 uM) of the same compound?
The Dose.FC.CTG was −0.790 log2 fold change.

What about the “Z.CTG (standard z score)” value (ENR+CD organoids; dose 10.00 uM) of the same compound?
The value was −1.887.

Which results are given for Cc1cc2c(cc1CC(=O)c1sccc1S(=O)(=O)Nc1onc(C)c1Cl)OCO2 [Sitaxentan sodium]?
Dose.FC.LYZ.NS [1, 7]: 0.094 log2 fold change; Z.LYZ.NS ([1]; dose 0.08 uM): 0.816; Dose.FC.LYZ.NS [1, 8]: −0.052 log2 fold change; Z.LYZ.NS ([1]; dose 0.40 uM): −0.455; Dose.FC.LYZ.NS [1, 9]: 0.090 log2 fold change; Z.LYZ.NS ([1]; dose 2.00 uM): 0.782; Dose.FC.LYZ.NS [1, 10]: −0.038 log2 fold change; Z.LYZ.NS ([1]; dose 10.00 uM): −0.332; Dose.FC.LYZ.S [2, 7]: −0.017 log2 fold change; Dose.FC.LYZ.S [2, 8]: −0.028 log2 fold change; Dose.FC.LYZ.S [2, 9]: 0.136 log2 fold change; Dose.FC.LYZ.S [2, 10]: −0.047 log2 fold change; Dose.FC.CTG (ENR+CD organoids; [7]): 0.095 log2 fold change; Dose.FC.CTG (ENR+CD organoids; [8]): −0.200 log2 fold change; Dose.FC.CTG (ENR+CD organoids; [9]): −0.096 log2 fold change; Dose.FC.CTG (ENR+CD organoids; [10]): −0.100 log2 fold change
